The data set in a line: Solubilization of retinol in cyclomethicone alone. The conditions noted are these: retinol 0.1-0.2% w/v in cyclomethicone alone. In kind it is physicochemical. The text has this:
Volatile organosiloxanes optionally are lightweight carriers that evaporate on application and thus have an elegant, light-weight “feel” on the skin. Volatile organosiloxanes, however, are typically limited in their ability to dissolve low polarity (i.e. usually greater than C7-C8)) organic compounds like retinoids. […] To address this issue vehicles were sought that would be both capable of creating clear solutions of active agent in a volatile organosiloxane carrier, but also have an appropriate evaporation rate in combination with the volatile organosiloxane when placed on the skin so as maintain the light-weight feel on the skin experienced by a user. A vehicle must also not promote unacceptable skin irritation when used at the concentration necessary in the composition.

Among the data in patent US20130310355A1, “LOW TOXICITY TOPICAL ACTIVE AGENT DELIVERY SYSTEM” (YOUNG PHARMACEUTICALS, INC., priority 2009, published 2013) are Appearance of solution values, retold here.

Consider `CC1=C(/C=C/C(C)=C/C=C/C(C)=C/CO)C(C)(C)CCC1` [retinol], for which the Appearance of solution entry is “hazy solutions”.
